Source: USRE48267E1, “Variants of C-type natriuretic peptide” (priority 2009, dated 2020)
Where a SMILES comes first, the peptide text is derived from it. Bridges are numbered along the chain shown (N, C = ends). Where no end group is shown, it is not given here. [ ]: non-standard residue; d: D form. Cit = NC(=O)NCCC[C@H](N)C(=O)O; PEG2K = PEG2K (polydispersed); PEG1K = polydispersed PEG1K

Columns and labels:
NPR-B = molecular target: T1, NPR-B (Mus musculus, UniProt Q6VVW5); assay: stimulation of cGMP production in NIH3T3 cells; assay type: cell-based, murine; settings: for cGMP Response rel. to 1 uM CNP22, 10 nM: NIH3T3 cells exposed to 10 nM peptide; for cGMP Response rel. to 1 uM CNP22, 10 nM / cGMP Response rel. to 1 uM CNP22, 1 uM: normalized to cell number and cGMP production in the presence of 1 uM wtCNP22; for cGMP Response rel. to 1 uM CNP22, 1 uM: NIH3T3 cells exposed to 1 uM peptide
T1 construct: Murine NIH3T3 cells express endogenously the CNP signaling receptor, NPR-B; endogenous in cells; host or cells: NIH3T3
T1 sequence (Q6VVW5 17-1047): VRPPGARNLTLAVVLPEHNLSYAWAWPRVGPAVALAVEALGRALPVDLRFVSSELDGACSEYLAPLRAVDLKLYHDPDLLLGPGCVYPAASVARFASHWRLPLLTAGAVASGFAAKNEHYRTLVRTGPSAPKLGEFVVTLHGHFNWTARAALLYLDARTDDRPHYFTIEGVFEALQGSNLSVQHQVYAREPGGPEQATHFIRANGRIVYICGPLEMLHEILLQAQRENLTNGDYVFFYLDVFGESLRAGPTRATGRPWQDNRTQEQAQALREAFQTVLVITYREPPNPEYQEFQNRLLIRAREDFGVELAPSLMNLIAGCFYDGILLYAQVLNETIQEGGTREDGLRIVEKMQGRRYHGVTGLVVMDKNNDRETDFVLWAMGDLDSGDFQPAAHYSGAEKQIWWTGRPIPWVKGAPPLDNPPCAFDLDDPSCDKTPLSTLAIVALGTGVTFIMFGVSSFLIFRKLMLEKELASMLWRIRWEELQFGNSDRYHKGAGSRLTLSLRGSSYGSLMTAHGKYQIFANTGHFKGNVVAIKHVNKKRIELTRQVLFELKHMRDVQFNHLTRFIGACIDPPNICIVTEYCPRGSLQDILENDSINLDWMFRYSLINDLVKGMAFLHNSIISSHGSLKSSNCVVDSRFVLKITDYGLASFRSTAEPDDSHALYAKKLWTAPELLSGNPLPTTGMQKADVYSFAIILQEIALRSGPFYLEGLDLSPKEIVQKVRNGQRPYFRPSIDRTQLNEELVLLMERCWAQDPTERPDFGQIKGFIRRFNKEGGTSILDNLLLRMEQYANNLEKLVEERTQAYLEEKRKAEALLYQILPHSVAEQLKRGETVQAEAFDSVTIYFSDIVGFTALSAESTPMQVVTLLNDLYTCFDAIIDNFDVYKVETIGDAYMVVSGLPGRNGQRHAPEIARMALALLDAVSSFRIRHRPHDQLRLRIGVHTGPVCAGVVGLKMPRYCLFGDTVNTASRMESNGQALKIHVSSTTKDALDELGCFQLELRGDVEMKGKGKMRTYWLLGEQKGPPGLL
Description: To determine the functional activity of CNP variants, the production of cGMP was measured in NIH3T3 cells exposed to the CNP variants. Murine NIH3T3 cells express endogenously the CNP signaling receptor, NPR-B, which shares 98% protein sequence identity with human NPR-B. NIH3T3 cells were cultured in high glucose Dulbecco's Modified Eagle Medium supplemented with 10% fetal calf serum and antibiotics at 37° C. with 5% CO2). Twenty four to 48 hours prior to signaling, cells were passaged to 12-well plates with a density of 2-5×10^5 cells per well at the time of the assay. CNP variants were resuspended in 1 mM HCl to a stock concentration of 1 mg/mL (455 uM for wtCNP22) and subsequently diluted to a 30 uM working stock solution with phosphate-buffered saline (PBS). Ten-fold serial dilutions were prepared in phosphate-buffered saline. Culture medium was removed from the cells and replaced with 0.4 mL PBS/Dulbecco's modified Eagle medium (50/50, v/v) containing 0.75 mM isobutylmethylxanine. Plates were incubated at 37° C., 5% CO2 for 15 minutes before addition of 0.2 mL CNP variant in PBS and continued incubation at 37° C. for 15 minutes. Reactions were stopped by the addition of 0.2 mL lysis buffer supplied with the CatchPoint cGMP assay kit (Molecular Devices), and cGMP production was determined with the CatchPoint cGMP Assay (Molecular Devices). All stimulation experiments were performed in duplicate.
Tables 1-4 summarize the ability of CNP variants having backbone or side chain modifications, amino acid substitutions, N-terminal amino acid extensions, and/or N-terminal PEGylation, respectively, to stimulate cGMP production in NIH3T3 cells. In all four tables, the values for cGMP production in NIH3T3 cells exposed to 10 nM or 1 uM CNP variant are normalized to cell number and cGMP production in the presence of 1 uM wtCNP22.

Recombinant human NEP = Recombinant human NEP (Homo sapiens, UniProt P08473); assay: in vitro NEP cleavage assay (disappearance of non-cleaved CNP variant); settings: for NEP Cleavage (t1/2, min): pH 7
Chain of Recombinant human NEP (P08473 whole entry): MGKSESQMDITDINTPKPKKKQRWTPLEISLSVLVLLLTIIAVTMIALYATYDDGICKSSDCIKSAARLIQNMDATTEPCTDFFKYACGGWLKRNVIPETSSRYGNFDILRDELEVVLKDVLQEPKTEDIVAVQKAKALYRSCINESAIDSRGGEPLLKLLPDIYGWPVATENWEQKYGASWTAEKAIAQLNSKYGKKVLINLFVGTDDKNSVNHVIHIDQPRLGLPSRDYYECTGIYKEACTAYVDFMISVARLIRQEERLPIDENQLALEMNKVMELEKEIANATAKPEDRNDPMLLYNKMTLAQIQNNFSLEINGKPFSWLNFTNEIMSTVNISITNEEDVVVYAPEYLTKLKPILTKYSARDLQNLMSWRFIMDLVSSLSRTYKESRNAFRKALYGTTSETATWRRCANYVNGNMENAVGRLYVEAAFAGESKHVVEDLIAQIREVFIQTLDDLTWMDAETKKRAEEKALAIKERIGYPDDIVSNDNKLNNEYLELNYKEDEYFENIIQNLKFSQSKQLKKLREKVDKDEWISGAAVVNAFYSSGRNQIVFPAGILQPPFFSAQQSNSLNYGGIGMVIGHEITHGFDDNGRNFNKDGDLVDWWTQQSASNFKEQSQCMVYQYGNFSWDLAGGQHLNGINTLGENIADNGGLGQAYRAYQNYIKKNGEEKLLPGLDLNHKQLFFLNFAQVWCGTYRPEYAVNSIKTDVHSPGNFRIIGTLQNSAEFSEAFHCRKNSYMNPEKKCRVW
Description: To determine the effects of amino acid substitutions, amino acid extensions, backbone modifications, side chain modifications and PEGylation on the susceptibility of CNP variants to neutral endopeptidase (NEP) cleavage, peptide cleavage assays were carried out using an in vitro assay that monitored disappearance of the non-cleaved CNP variant.
Recombinant human NEP (1 ug/mL final concentration) was added to 100 uM CNP variant diluted in 0.1 M Tris, pH 7. The reaction mixture was incubated at 37° C. for various periods of time, and the reaction was quenched with EDTA (10 mM final) followed by heat denaturation. The reaction mixture was reduced and then the reaction products were analyzed using HPLC and mass spectroscopy. The half-life of the CNP variant was calculated based on the disappearance of intact CNP variant over time.

Compound | cGMP Response rel. to 1 uM CNP22, 10 nM (NPR-B) | cGMP Response rel. to 1 uM CNP22, 1 uM (NPR-B) | NEP Cleavage (t1/2, min) (Recombinant human NEP) | further results
CC[C@H](C)[C@@H]1NC(=O)[C@H](CCCNC(=N)N)NC(=O)[C@H](CC(=O)O)NC(=O)[C@H](CC(C)C)NC(=O)[C@H](CCCCN)NC(=O)[C@H](CC(C)C)NC(=O)CNC(=O)[C@H](Cc2ccccc2)NC(=O)[C@@H](NC(=O)CNC(=O)[C@H](CCCNC(=N)N)NC(=O)[C@H](CO)NC(=O)[C@H](CC(C)C)NC(=O)CN)CSSC[C@@H](C(=O)O)NC(=O)CNC(=O)[C@H](CC(C)C)NC(=O)CNC(=O)[C@H](CO)NC(=O)[C@H](CCSC)NC(=O)[C@H](CO)NC(=O)[C@H](CCCNC(N)=O)NC1=O [Analog AF, CNP22, K4R, G15Cit] (H-GLSRGCFGLKLDRI[Cit]SMSGLGC-OH; disulfide 6-22) | 1.4 | 2 | – | –
PEG20K-CNP22: CNP22 conjugated at the N-terminus to polydispersed PEG20K | – | – | >>160 min | –
DLRVDTKSRAAWARLLQEHPNARKYKGANKKGLSKGCFGLKLDRIGSMSGLGC (disulfide 37-53) [Analog BM, reference compound] | – | – | – | resistance to NEP cleavage (in words) (Recombinant human NEP): resistant to NEP degradation
PEG1K-GANRR-CNP22(K4R): GANRR-CNP22, K4R (SEQ ID NO: 36) conjugated at the N-terminus to PEG1K (PEG1K-GANRRGLSRGCFGLKLDRIGSMSGLGC; not fully specified (bridges); ends and bridges not checked) | – | – | >160 min | –
SPKMVQGSG-CNP17-KVLRRH (SPKMVQGSGCFGLKLDRIGSMSGLGCKVLRRH; disulfide 10-26 (inferred); ends not checked) [Analog CD] | – | – | – | NPR-B stimulation activity / cGMP production compared with wtCNP22 (in words) (NPR-B; NIH3T3 cells): comparable NPR-B stimulation activity as wtCNP22
PEG1K-CNP22: CNP22 conjugated at the N-terminus to polydispersed PEG1K | – | – | >160 min | –
CC[C@H](C)[C@@H]1NC(=O)[C@H](CCCNC(=N)N)NC(=O)[C@H](CC(=O)O)NC(=O)[C@H](CC(C)C)NC(=O)[C@H](CCCCN)NC(=O)[C@H](CC(C)C)NC(=O)CNC(=O)[C@H](Cc2ccccc2)NC(=O)[C@@H](NC(=O)CNC(=O)[C@H](CCCNC(=N)N)NC(=O)[C@H](CO)NC(=O)[C@H](CC(C)C)NC(=O)CN)CSSC[C@@H](C(=O)O)NC(=O)CNC(=O)[C@H](CC(C)C)NC(=O)CNC(=O)[C@H](CO)NC(=O)[C@H](C(C)C)NC(=O)[C@H](CO)NC(=O)CNC1=O [Analog AG, CNP22, K4R, M17V] (H-GLSRGCFGLKLDRIGSVSGLGC-OH; disulfide 6-22) | 10 | 65 | – | –
PEG5K-CNP22: CNP22 conjugated at the N-terminus to polydispersed PEG5K | – | – | >>160 min | resistance to NEP cleavage (in words) (Recombinant human NEP): resistant to NEP degradation over the assay period of 160 minutes
PEG2K-CNP22: CNP22 conjugated at the N-terminus to polydispersed PEG2K | – | – | >>160 min | –
CC[C@H](C)[C@@H]1NC(=O)[C@H](CCCNC(=N)N)NC(=O)[C@H](CC(=O)O)NC(=O)[C@H](CC(C)C)NC(=O)[C@H](CCCCN)NC(=O)[C@H](CC(C)C)NC(=O)CNC(=O)[C@H](Cc2ccccc2)NC(=O)[C@@H](NC(=O)CNC(=O)[C@H](CCCCN)NC(=O)[C@H](CO)NC(=O)[C@H](CC(C)C)NC(=O)CNC(=O)[C@H](CCC(N)=O)NC(=O)[C@H](CCC(N)=O)NC(=O)[C@H](CC(N)=O)NC(=O)[C@H](C)NC(=O)CNC(=O)[C@H](Cc2c[nH]cn2)NC(=O)[C@@H](NC(=O)[C@H](CC(=O)O)NC(=O)[C@H](Cc2c[nH]cn2)NC(=O)[C@H](CCC(=O)O)NC(=O)[C@H](Cc2c[nH]cn2)NC(=O)[C@@H]2CCCN2C(=O)[C@H](Cc2c[nH]cn2)NC(=O)[C@H](Cc2c[nH]cn2)NC(=O)[C@H](C)NC(=O)CN)[C@@H](C)O)CSSC[C@@H](C(=O)O)NC(=O)CNC(=O)[C@H](CC(C)C)NC(=O)CNC(=O)[C@H](CO)NC(=O)[C@H](CCSC)NC(=O)[C@H](CO)NC(=O)CNC1=O [Analog CR] (H-GAHHPHEHDTHGANQQGLSKGCFGLKLDRIGSMSGLGC-OH; disulfide 22-38; N-terminus and C-terminus assumed) | 14 ± 5 | 77 ± 12 | – | –
PEG2K-CNP22(K4G): CNP22 having a K4G substitution, N-terminal PEGylated with PEG2K (PEG2K-GLSGGCFGLKLDRIGSMSGLGC; not fully specified (bridges); ends and bridges not checked; UniProt P23582 105-126, looked up, variant K4G) | – | – | – | resistance to NEP cleavage (in words) (Recombinant human NEP): only slightly more resistant to NEP cleavage than CNP22
CC[C@H](C)[C@@H]1NC(=O)[C@H](CCCNC(=N)N)NC(=O)[C@H](CC(=O)O)NC(=O)[C@H](CC(C)C)NC(=O)[C@H](CCCCN)NC(=O)[C@H](CC(C)C)NC(=O)CNC(=O)[C@H](Cc2ccccc2)NC(=O)[C@@H](NC(=O)CNC(=O)[C@H](CCCNC(=N)N)NC(=O)[C@H](CO)NC(=O)[C@H](CC(C)C)NC(=O)CN)CSSC[C@@H](C(=O)O)NC(=O)CNC(=O)[C@H](CC(C)C)NC(=O)CNC(=O)[C@H](CO)NC(=O)[C@H](CCSC)NC(=O)[C@H](CO)NC(=O)[C@H](CCCNC(=N)N)NC1=O [Analog AE, CNP22, K4R, G15R] (H-GLSRGCFGLKLDRIRSMSGLGC-OH; disulfide 6-22) | 0.3 | 0.3 | – | –
CC[C@H](C)[C@@H]1NC(=O)[C@H](CCCNC(=N)N)NC(=O)[C@H](CC(=O)O)NC(=O)[C@H](CC(C)C)NC(=O)[C@H](CCCCN)NC(=O)[C@H](CC(C)C)NC(=O)CNC(=O)[C@H](Cc2ccccc2)NC(=O)[C@@H](NC(=O)CNC(=O)[C@H](CCCCN)NC(=O)[C@H](CO)NC(=O)[C@H](CC(C)C)NC(=O)CNC(=O)[C@H](CCC(N)=O)NC(=O)[C@H](CCC(N)=O)NC(=O)[C@H](CC(N)=O)NC(=O)[C@H](C)NC(=O)CNC(=O)[C@H](Cc2c[nH]cn2)NC(=O)[C@@H]2CCCN2C(=O)[C@H](Cc2c[nH]cn2)NC(=O)[C@H](CCC(N)=O)NC(=O)[C@H](CCC(=O)O)NC(=O)[C@H](Cc2c[nH]cn2)NC(=O)[C@H](CO)NC(=O)[C@H](Cc2c[nH]cn2)NC(=O)[C@H](Cc2c[nH]cn2)NC(=O)CN)CSSC[C@@H](C(=O)O)NC(=O)CNC(=O)[C@H](CC(C)C)NC(=O)CNC(=O)[C@H](CO)NC(=O)[C@H](CCSC)NC(=O)[C@H](CO)NC(=O)CNC1=O [Analog CQ] (H-GHHSHEQHPHGANQQGLSKGCFGLKLDRIGSMSGLGC-OH; disulfide 21-37; N-terminus and C-terminus assumed) | 16 | 95 | – | –
